Assay results reported in patent publication US7166694B2, “Vaccine against cancerous diseases which is based on mimotopes of antigens expressed on tumor cells” (priority 2000, dated 2007).
Marks after values point to notes of the source that are not given here.

How the values were obtained:
SKBR3 membranes = test: ELISA of control antibody binding to SKBR3 membranes; details: control antibody against CD20
Description: (§1) The wells of a 96-well ELISA plate (Nunc) were coated with membrane fractions of the Her-2/neu overexpressing cell line SKBR3 and as a control for non-specific antibody bonds with membrane fractions of the Her-2/neu negative cell line HTB 132 in PBS overnight.
(§2) The next day, non-specific binding sites were blocked by 3 percent BSA in PBS. Herceptin as well as herceptin after preincubation with relevant and irrelevant phage mimotopes or by mimotopes on KLH as well as on KLH alone were applied to the coated, blocked ELISA plate in a repeated test. […] HRP enters into a color reaction with the substrate. The result of this color reaction can be quantified by photometer. The absorption coefficient of 450/630 nm (OD) is determined.

Her-2/neu = test: ELISA inhibition of the binding of herceptin and HER-2/neu (SKBR3 membranes) by mimotopes; details: in comparison to uninhibited herceptin control in ELISA, herceptin preincubated overnight
Description: For the ELISA inhibition assay one tries to prevent this bond by preincubation with mimotopes on phages or KLH as carrier.
as §1, §2

Substance | signal on SKBR3 membranes (SKBR3 membranes) | Inhibition of herceptin binding with phage mimotopes (Her-2/neu)
Rituximab: humanized monoclonal antibody directed against the phosphoprotein surface antigen on lymphocytes, CD20; control antibody | could not produce any signal | 
phage mimotope SEQ ID NO: 9: phage mimotope CHPTLLWPDFC (homo sapiens) |  | 30.2* Percent
